Measurements reported in PubChem BioAssay AID1963872 (Molecular Pharmacology Branch, DTP, NCI, 2024).

Tested on: KRAS patient-derived spheroids with HUVEC/MSC, viability
Experiment: Anticancer human tumor 519858-162-T-J1-PDC patient-derived colon adenocarcinoma cell line growth inhibition [KRAS2]
Conditions: for IC50: curve of first compound; for viability, T/C: stronger effect = lower value; active means viability on the fitted dose curve at most 10% of control; inactive means the rest
Procedure, shortened: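 Combination screen of spheroid viability in tumor-cell co-cultures with endothelial (HUVEC) and mesenchymal stem cell stroma. Each agent was tested in half-log dilutions, topping at clinical Cmax or at 10 microM without a known Cmax.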

[1] = second compound 0.1 µM, first compound 0.0316 µM
[2] = second compound 0.1 µM, first compound 0.1 µM
[3] = second compound 0.1 µM, first compound 0.316 µM
[4] = second compound 0.1 µM, first compound 1 µM
[5] = second compound 0.316 µM, first compound 0.0316 µM
[6] = second compound 0.316 µM, first compound 0.1 µM
[7] = second compound 0.316 µM, first compound 0.316 µM
[8] = second compound 0.316 µM, first compound 1 µM
[9] = second compound 1 µM, first compound 0.0316 µM
[10] = second compound 1 µM, first compound 0.1 µM
[11] = second compound 1 µM, first compound 0.316 µM
[12] = second compound 1 µM, first compound 1 µM
[13] = second compound 3.16 µM, first compound 0.0316 µM
[14] = second compound 3.16 µM, first compound 0.1 µM
[15] = second compound 3.16 µM, first compound 0.316 µM
[16] = second compound 3.16 µM, first compound 1 µM
[17] = second compound 10 µM, first compound 0.0316 µM
[18] = second compound 10 µM, first compound 0.1 µM
[19] = second compound 10 µM, first compound 0.316 µM
[20] = second compound 10 µM, first compound 1 µM
[21] = second compound 0.1 µM, first compound 3.16 µM
[22] = second compound 0.1 µM, first compound 10 µM
[23] = second compound 0.316 µM, first compound 3.16 µM
[24] = second compound 0.316 µM, first compound 10 µM
[25] = second compound 1 µM, first compound 3.16 µM
[26] = second compound 1 µM, first compound 10 µM
[27] = second compound 3.16 µM, first compound 3.16 µM
[28] = second compound 3.16 µM, first compound 10 µM
[29] = second compound 10 µM, first compound 3.16 µM
[30] = second compound 10 µM, first compound 10 µM
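Further: compound exposure lasted seven days before readout.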
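Wherever viability, T/C is given: 100% = DMSO vehicle control viability.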

CCN1CCN(Cc2ccc(Nc3ncc(F)c(-c4cc(F)c5nc(C)n(C(C)C)c5c4)n3)nc2)CC1 + CNCc1ccccc1-c1csc(C(C)Nc2nc(C)nc3cc(OC)c(OC)cc23)c1
< 3.16 nM: IC50 (second compound 10 µM)
inactive: viability, T/C (second compound 0.1 µM, first compound 0.00316 µM) 86% | viability, T/C (second compound 0.1 µM, first compound 0.01 µM) 67.9% | viability, T/C [1] 88.8% | viability, T/C [2] 82% | viability, T/C [3] 61.4% | viability, T/C [4] 42.8% | viability, T/C (second compound 0.316 µM, first compound 0.00316 µM) 98.1% | viability, T/C (second compound 0.316 µM, first compound 0.01 µM) 76.4% | viability, T/C [5] 51.9% | viability, T/C [6] 60.9% | viability, T/C [7] 48.1% | viability, T/C [8] 42.9% | viability, T/C (second compound 1 µM, first compound 0.00316 µM) 79% | viability, T/C (second compound 1 µM, first compound 0.01 µM) 61.4% | viability, T/C [9] 59.6% | viability, T/C [10] 59.2% | viability, T/C [11] 49.3% | viability, T/C [12] 21.2% | viability, T/C (second compound 3.16 µM, first compound 0.00316 µM) 56.3% | viability, T/C (second compound 3.16 µM, first compound 0.01 µM) 56.5% | viability, T/C [13] 47.3% | viability, T/C [14] 16.2% | viability, T/C [15] 31.1% | viability, T/C [16] 29.7%
22.4 nM: IC50 (second compound 3.16 µM)
640 nM: IC50 (second compound 0.1 µM)
178 nM: IC50 (second compound 0.316 µM)
207 nM: IC50 (second compound 1 µM)
active: viability, T/C (second compound 10 µM, first compound 0.00316 µM) 0.31% | viability, T/C (second compound 10 µM, first compound 0.01 µM) 0.24% | viability, T/C [17] 0.75% | viability, T/C [18] 0.26% | viability, T/C [19] 0.21% | viability, T/C [20] 2.71%

O=C(c1cc(Cc2n[nH]c(=O)c3ccccc23)ccc1F)N1CCN(C(=O)C2CC2)CC1 + CNCc1ccccc1-c1csc(C(C)Nc2nc(C)nc3cc(OC)c(OC)cc23)c1
inactive: viability, T/C [1] 78.8% | viability, T/C [2] 93.4% | viability, T/C [3] 86.4% | viability, T/C [4] 82.6% | viability, T/C [21] 78.9% | viability, T/C [22] 115% | viability, T/C [5] 105% | viability, T/C [6] 105% | viability, T/C [7] 97.8% | viability, T/C [8] 75.8% | viability, T/C [23] 70.9% | viability, T/C [24] 82.4% | viability, T/C [9] 132% | viability, T/C [10] 92.3% | viability, T/C [11] 77% | viability, T/C [12] 127% | viability, T/C [25] 91.8% | viability, T/C [26] 115% | viability, T/C [13] 60.3% | viability, T/C [14] 52.2% | viability, T/C [15] 59.5% | viability, T/C [16] 70.5% | viability, T/C [27] 76.8% | viability, T/C [28] 64.6%
active: viability, T/C [17] 0.49% | viability, T/C [18] 0.38% | viability, T/C [19] 0.54% | viability, T/C [20] 0.33% | viability, T/C [29] 0.44% | viability, T/C [30] 0.38%
< 31.6 nM: IC50 (second compound 10 µM)
> 10000 nM: IC50 (second compound 0.1 µM) | IC50 (second compound 0.316 µM) | IC50 (second compound 1 µM) | IC50 (second compound 3.16 µM)

Cn1nccc1Nc1nccc(-c2cc3c(s2)C(C)(C)N(CCN2CCOCC2)C3=O)n1 + COc1cc2nc(C)nc(NC(C)c3cc(N)cc(C(F)(F)F)c3)c2cc1OC1CCOC1
1760 nM: IC50 (second compound 1 µM)
488 nM: IC50 (second compound 3.16 µM)
2180 nM: IC50 (second compound 0.316 µM)
inactive: viability, T/C [1] 98.2% | viability, T/C [2] 73.5% | viability, T/C [3] 83.4% | viability, T/C [4] 59.7% | viability, T/C [21] 67.8% | viability, T/C [22] 30.3% | viability, T/C [5] 77.9% | viability, T/C [6] 89.5% | viability, T/C [7] 65% | viability, T/C [8] 70.8% | viability, T/C [23] 40.6% | viability, T/C [24] 23.2% | viability, T/C [9] 82.1% | viability, T/C [10] 80.7% | viability, T/C [11] 52.8% | viability, T/C [12] 72.5% | viability, T/C [25] 36.3% | viability, T/C [26] 25.9% | viability, T/C [13] 60.4% | viability, T/C [14] 74.3% | viability, T/C [15] 46.5% | viability, T/C [16] 46.7% | viability, T/C [27] 24.4% | viability, T/C [28] 23% | viability, T/C [17] 55.7% | viability, T/C [18] 59.2% | viability, T/C [19] 59.1% | viability, T/C [20] 58.8% | viability, T/C [29] 18.5% | viability, T/C [30] 14.3%
4150 nM: IC50 (second compound 0.1 µM)
1270 nM: IC50 (second compound 10 µM)
